In patent US6569638B1, “Method for screening compounds for the treatment of neoplasia” (Cell Pathways, Inc, priority 2000, dated 2003):

What was measured:
[1] = test system: aberrant crypt foci (ACF); test: Azoxymethane-induced aberrant crypt foci model; assay type: in vivo, male Fisher 344 rats; conditions: for % Control (ACF/colon) / Mean ACF/colon (+SE): free base; for Mean ACF/colon (+SE): 5 weeks
Procedure: The growth inhibition IC50 value obtained for Compound B was 0.7 μM in the SW-480 cell line. […] This established rodent model of azoxymethane (“AOM”)-induced carcinogenesis was used to assess the effects of Compound B (free base and salt) on colon cancer development in vivo. ACF are precursors to colonic tumors, and ACF inhibition is predictive of chemo-preventive efficacy.
In the rats in this experiment, ACF initiation was achieved by two consecutive weekly injections of the carcinogen. Compound B was administered one week prior to ACF initiation and for the duration of the experiment. ACFs were scored after 5 weeks of treatment. Compound B was administered orally to male Fisher 344 rats in the rat chow. Daily food consumption (mg/kg body weight) varied over the course of the study, and therefore Compound B dose was expressed a grams per kg of diet to provide a basis of comparison between doses. […] The experimental groups gained less weight than the controls, which was indicative of bioavailability. However, the weight differences were less than 10% and not considered to affect ACF formation.

COX I = target: T1, COX I (Ovis aries, UniProt P05979); test: COX I inhibition; assay type: biochemical, ram; conditions: at 100 μM
T1 construct: COX-I purified from ram seminal vesicles; tissue Cayman Chemical; host or cells: ram seminal vesicles
T1 sequence (P05979 25-600): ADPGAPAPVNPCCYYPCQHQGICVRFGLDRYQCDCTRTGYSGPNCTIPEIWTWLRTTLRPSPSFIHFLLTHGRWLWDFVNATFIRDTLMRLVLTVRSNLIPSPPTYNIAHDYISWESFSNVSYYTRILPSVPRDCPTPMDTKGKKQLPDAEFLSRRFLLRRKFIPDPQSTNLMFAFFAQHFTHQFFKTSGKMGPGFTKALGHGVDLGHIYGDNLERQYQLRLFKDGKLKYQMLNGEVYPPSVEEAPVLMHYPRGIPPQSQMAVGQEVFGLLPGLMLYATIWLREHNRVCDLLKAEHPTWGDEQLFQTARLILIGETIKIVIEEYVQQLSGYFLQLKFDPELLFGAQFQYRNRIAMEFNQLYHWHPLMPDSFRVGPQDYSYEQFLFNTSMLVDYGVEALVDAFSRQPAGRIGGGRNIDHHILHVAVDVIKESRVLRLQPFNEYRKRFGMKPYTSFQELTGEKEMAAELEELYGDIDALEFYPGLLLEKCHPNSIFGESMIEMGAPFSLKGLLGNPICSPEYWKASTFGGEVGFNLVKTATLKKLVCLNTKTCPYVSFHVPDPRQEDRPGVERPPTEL

[2] = Single, escalating dose human safety study; assay type: in vivo; conditions: oral
[3] = test system: PKG in SW480 colon cancer cells; test: PKG assay of drug-treated cell lysates (GST-cGB-PDE5 solid phase substrate); assay type: cell-based, human; conditions: 48 hrs, exisulind 200, 400, 600 μM, E4021 0.1, 1, 10 μM, with and without added cGMP
Procedure: To test the effect of cGMP-specific PDE inhibition on neoplasia containing the APC mutation, SW480 colon cancer cells were employed. SW 480 is known to contain the APC mutation. About 5 million SW480 cells in RPMI 5% serum are added to each of 8 dishes:
2-10 cm dishes—30 μL DMSO vehicle control (without drug),
3-10 cm dishes—200 μM, 400 μM, 600 μM exisulind in DMSO, and
The dishes are incubated for 48 hrs at 37° C. in 5% CO2 incubator.
The liquid media are aspirated from the dishes (the cells will attach themselves to the dishes). The attached cells are washed in each dish with cold PBS, and 200 μL cell lysis buffer (i.e., 50 mM Tris-HCl, 1% NP-40, 150 mM NaCl, 1 mM EDTA, 1 mM Na3VO4, 1 mM NaF, 500 μM IBMX with proteinase inhibitors) is added to each dish. Immediately after the cell lysis buffer is added, the lysed cells are collected by scraping the cells off each dish. The cell lysate from each dish is transferred to a microfuge tube, and the microfuge tubes are incubated at 4° C. for 15 minutes while gently agitating the microfuge tubes to allow the cells to lyse completely. […]
For each control or drug cell lysate sample to be evaluated, the reaction is started by adding phosphorylation buffer containing 10 μCi ^32P-γ-ATP solution (200 μM ATP, 4.5 mM MgCl; 5 mM KH2PO4; 5 mM K2HPO4;) to each mixture. […]

PKG in SW480 cells = test: Western blot of PKG expression; assay type: cell-based, human; conditions: 48 hours
Procedure: SW480 cells treated with exisulind as described previously are harvested from the microfuge tubes by rinsing once with ice-cold PBS. The cells are lysed by modified RIPA buffer for 15 minutes with agitation. The cell lysate is spun down in a cold room. The supernatants are transferred to fresh microcentrifuge tubes immediately after spinning. BioRad DC Protein Assay (Temecula, Calif.) is performed to determine the protein concentrations in samples. The samples are normalized for protein concentration, as described above.
50 μg of each sample is loaded to 10% SDS gel. SDS-PAGE is performed, and the proteins then are transferred to a nitrocellulose membrane. The blotted nitrocellulose membrane are blocked in freshly prepared TBST containing 5% nonfat dry milk for one hour at room temperature with constant agitation.
A goat-anti-PKG primary antibody is diluted to the recommended concentration/dilution in fresh TBST/5% nonfat dry milk. The nitrocellulose membrane is placed in the primary antibody solution and incubated one hour at room temperature with agitation. The nitrocellulose membrane is washed three times for ten minutes each with TBST. The nitrocellulose membrane is incubated in a solution containing a secondary POD conjugated rabbit anti-goat antibody for 1 hour at room temperature with agitation. The nitrocellulose membrane is washed three times for ten minutes each time with TBST. […]

Structure (SMILES) | % Control (ACF/colon) ([1]; 0.5 g/kg diet) | Mean ACF/colon (+SE) ([1]; 0.5 g/kg diet) | % Control (ACF/colon) ([1]; 1 g/kg diet) | Mean ACF/colon (+SE) ([1]; 1 g/kg diet) | % Control (ACF/colon) ([1]; 1.5 g/kg diet) | Mean ACF/colon (+SE) ([1]; 1.5 g/kg diet) | % Control (ACF/colon) ([1]; 2.0 g/kg diet) | Mean ACF/colon (+SE) ([1]; 2.0 g/kg diet) | body weight difference versus controls ([1]; rats, Compound B in rat chow, over the experiment) | COX I inhibition (COX I) | side effects [2] | PKG activity relative to control [3] | PKG level by Western blot (PKG in SW480 cells)
CC1=C(CC(=O)NCc2ccccc2)c2cc(F)ccc2/C1=C\c1ccncc1.Cl [Compound B, (Z)-5-fluoro-2-methyl-(4-pyridylidene)-3-(N-benzyl)indenylacetamide hydrochloride] | 100% | 149 ± 14 | 75% | 111 ± 9 | 89% | 132 ± 4 | 72% | 107 ± 15 | less than 10% | less than 25% | no significant side effects at any dose | – | –
CC1=C(CC(=O)O)c2cc(F)ccc2/C1=C\c1ccc(S(C)(=O)=O)cc1 [exisulind, 5-fluoro-2-methyl-1-(p-methylsulfonylbenzylidene)-3-indenylacetic acid] | – | – | – | – | – | – | – | – | – | – | – | causes PKG activity to increase in a dose-dependent manner | the increase of PKG
